Results from patent US20250107513A1, “METHOD FOR COUNTING EMBRYOS DEVELOPING IN A UTERUS OF CAENORHABDITIS ELEGANS” (Shanghai University, priority 2022, published 2025).

System: Caenorhabditis elegans
Assay: counting embryos developing in the uterus of Caenorhabditis elegans after TPHP exposure
Assay type: in vivo
Settings: then cultured until pregnancy, relative to the control group, p<0.01
Description: As shown in a flowchart (FIG. 1) of a method in the present invention, this embodiment provides a method for counting embryos developing in a uterus of Caenorhabditis elegans exposed to a chemical of triphenyl phosphate (TPHP) for 72 hours, specifically including the following steps:
Step 5: Subject Caenorhabditis elegans to synchronization treatment. Nematode eggs are added dropwise to the NGM medium containing no E. coli, the nematode eggs are cultured at 20° C. for 16 to 20 hours under dark conditions, where Caenorhabditis elegans are in the L1 stage, and Caenorhabditis elegans at the stage are rinsed into a 1.5 mL centrifuge tube with the K solution 3 times.
Step 6: Prepare exposure solutions. 0.1000 g of TPHP solid is weighed accurately, the TPHP solid is dissolved in dimethyl sulfoxide until a concentration reaches 10 g/L, and then TPHP solutions are diluted with dimethyl sulfoxide again until concentrations reach 10 mg/L, 100 mg/L, 1000 mg/L and 5000 mg/L to be used as mother liquors later. Dimethyl sulfoxide is used as the mother liquor of the blank control group. The mother liquors are further diluted by 100 folds with the K solution and then diluting the diluted mother liquors by 100 folds with a K+ solution to finally obtain exposure solutions of Caenorhabditis elegans containing 0 μg/L (control group), 1 μg/L, 10 μg/L, 100 μg/L and 500 μg/L TPHP.
Step 7: Expose Caenorhabditis elegans to a TPHP solution. A prepared TPHP exposure solution is added to a sterile 6-well plate with 5 mL of prepared TPHP exposure solution per well. Caenorhabditis elegans at the L1 stage are then evenly added to the 6-well plate after the synchronization treatment, Caenorhabditis elegans are fed with 100 μg/L E. coli daily, and Caenorhabditis elegans are cultured for 72 hours.
Step 8: Select Caenorhabditis elegans at an exposure stage. The method in the present invention is applicable to pregnant Caenorhabditis elegans, and this is because Caenorhabditis elegans are […] after being exposed to TPHP for 72 hours. […]
Step 11: Count embryos in the uterus of Caenorhabditis elegans. The 24-well plate containing transparent Caenorhabditis elegans is put under an optical stereomicroscope, and exposed embryos of each Caenorhabditis elegans are counted, where exposed embryos of at least 25 nematodes are counted in each treatment group.
Step 12: Analyze data. Data is analyzed by using SPSS software, a confidence interval of samples is set to 95%, and an intra-group mean and mean error of the numbers of embryos developing in nematodes in different treatment groups are calculated, where the data can be selectively in a format of a mean percentage or multiple based on requirements of the experiment. […]

## O=P(Oc1ccccc1)(Oc1ccccc1)Oc1ccccc1 [TPHP, triphenyl phosphate]
Exposure to 1 μg/L TPHP from L1 stage for 72 hours
  decrease in the numbers of embryos in the uteri: 14.2%
Exposure to 10 μg/L TPHP from L1 stage for 72 hours
  decrease in the numbers of embryos in the uteri: 18.2%
Exposure to 100 μg/L TPHP from L1 stage for 72 hours
  decrease in the numbers of embryos in the uteri: 18.1%
Exposure to 500 μg/L TPHP from L1 stage for 72 hours
  decrease in the numbers of embryos in the uteri: 21.8%
